From article PMC7763114, “Synthesis and pharmacological effects of novel benzenesulfonamides carrying benzamide moiety as carbonic anhydrase and acetylcholinesterase inhibitors” (Turkish Journal of Chemistry, 2020)
Where “and” joins values, the source holds several entries; their conditions need not be identical. Identical values can stand only once.

What was measured:
Assay type in all cases: biochemical
[1] = target: hCA II (Homo sapiens, UniProt P00918); test: biochemical; settings: for Ki: Lineweaver–Burk plots, three concentrations
Method: (§1) CA isoenzymes (CA I and CA II) were purified using a Sepharose-4B-L tyrosine-sulphanilamide affinity chromatography. Activities of CA isoenzymes were determined according to method by Verpoorte et al.. […] The experimental procedure was given in detail in our previous papers. SSpectrophotometry-based Ellman’s method was used to test the compounds’ AChE inhibitory effects. Acetylthiocholine iodide (AChI) was used as a substrate of the reaction. 5,5-dithiobis(2-nitro-benzoic acid) (DTNB) was used for the determination of the AChE activities. An activity (%)-[Compound] graph was drawn to calculate the inhibition effects of the compounds on CAs and AChE. The IC50 values were obtained from activity (%) versus compounds plots. Three different concentrations were used to calculate Ki values. The Lineweaver–Burk plots were drawn, and calculations were realized as described.

[2] = target: hCA I (Homo sapiens, UniProt P00915); test: biochemical; settings: for Ki: Lineweaver–Burk plots, three concentrations
hCA I, sequence (P00915 whole entry): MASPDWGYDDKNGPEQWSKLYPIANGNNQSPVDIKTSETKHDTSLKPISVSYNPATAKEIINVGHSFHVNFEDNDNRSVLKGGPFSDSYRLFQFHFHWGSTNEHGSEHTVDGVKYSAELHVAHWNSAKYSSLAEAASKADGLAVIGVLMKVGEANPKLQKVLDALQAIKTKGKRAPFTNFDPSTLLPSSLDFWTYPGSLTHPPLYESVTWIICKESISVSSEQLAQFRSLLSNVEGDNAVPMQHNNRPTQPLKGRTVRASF
Method: as §1

[3] = target: AChE (Electrophorus electricus, UniProt O42275); test: AChE inhibition (Ellman's method); settings: in terms of Ki value
AChE, sequence (O42275 24-633): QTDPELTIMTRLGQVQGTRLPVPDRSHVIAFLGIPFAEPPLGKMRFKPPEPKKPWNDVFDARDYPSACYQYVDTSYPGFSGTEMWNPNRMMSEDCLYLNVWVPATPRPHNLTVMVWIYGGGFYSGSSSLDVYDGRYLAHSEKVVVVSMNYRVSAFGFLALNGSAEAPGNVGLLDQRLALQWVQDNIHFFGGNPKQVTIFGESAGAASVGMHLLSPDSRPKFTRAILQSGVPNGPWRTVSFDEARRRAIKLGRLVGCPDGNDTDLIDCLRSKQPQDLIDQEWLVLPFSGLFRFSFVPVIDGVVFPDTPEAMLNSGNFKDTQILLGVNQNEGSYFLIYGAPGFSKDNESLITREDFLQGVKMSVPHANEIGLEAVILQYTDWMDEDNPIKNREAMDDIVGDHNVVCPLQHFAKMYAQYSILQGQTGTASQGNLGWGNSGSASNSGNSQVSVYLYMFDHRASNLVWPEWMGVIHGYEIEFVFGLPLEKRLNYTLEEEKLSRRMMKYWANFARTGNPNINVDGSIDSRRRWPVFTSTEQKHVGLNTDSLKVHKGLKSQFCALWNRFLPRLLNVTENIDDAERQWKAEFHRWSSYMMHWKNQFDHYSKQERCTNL
Method: as §1

SMILES	IC50 [1] [nM]	Ki [1] [nM]	times more potent than AZA toward hCA II ([1]; based on Ki values)	IC50 [2] [nM]	Ki [2] [nM]	times more potent than AZA toward hCA I ([2]; based on Ki values) [×]	times more potent than compound 2 on hCA II ([1]; based on Ki values) [×]	times more potent than 3e on AChE [3] [×]	times more potent than 3g on AChE [3] [×]	times more potent than 3e on hCA I ([2]; based on Ki values) [×]	times more potent than compound 2 on hCA I ([2]; based on Ki values) [×]
COc1ccc(/C=C(\NC(=O)c2ccccc2)C(=O)Nc2ccc(S(=O)(=O)NC(C)=O)cc2)cc1 [3a]	20.4	18.7 ± 1.59	1.2 ×	27.7	17.6 ± 4.72	1.7	–	–	–	–	–
COc1ccc(/C=C(\NC(=O)c2ccccc2)C(=O)Nc2ccc(S(=O)(=O)NC(=N)N)cc2)cc1 [3b]	24.8	12.6 ± 2.54	1.8 ×	19.8	29.7 ± 3.18	–	–	–	–	–	–
COc1ccc(/C=C(\NC(=O)c2ccccc2)C(=O)Nc2ccc(S(N)(=O)=O)cc2)cc1 [3c]	30.1	10.7 ± 0.98	2.1 × and 2 ×	20.4	6.33 ± 0.51	4.8	5.8	–	–	–	–
COc1ccc(/C=C(\NC(=O)c2ccccc2)C(=O)Nc2ccc(S(=O)(=O)Nc3nccs3)cc2)cc1 [3d]	21	16.9 ± 3.76	1.3 ×	22.4	9.16 ± 0.46	3.3	–	–	–	–	–
COc1ccc(/C=C(\NC(=O)c2ccccc2)C(=O)Nc2ccc(S(=O)(=O)Nc3ncccn3)cc2)cc1 [3e]	25.7	37.2 ± 7.55	–	25.7	8.02 ± 0.88	3.8	–	–	–	–	–
COc1ccc(/C=C(\NC(=O)c2ccccc2)C(=O)Nc2ccc(S(=O)(=O)Nc3nccc(C)n3)cc2)cc1 [3f]	24.8	21.4 ± 3.47	–	28.9	11.3 ± 1.7	2.7	–	3.8	1.5	–	–
COc1ccc(/C=C(\NC(=O)c2ccccc2)C(=O)Nc2ccc(S(=O)(=O)Nc3nc(C)cc(C)n3)cc2)cc1 [3g]	26.7	14.9 ± 3.1	1.5 ×	21	4.07 ± 0.38	7.5	–	–	–	2	12.4
COc1ccc(C=C2N=C(c3ccccc3)OC2=O)cc1 [compound 2, 4-(4-methoxybenzylidene)-2-phenyloxazol-5(4H)-one]	46.2	62.5 ± 11.5	–	40.8	50.3 ± 1.59	–	–	–	–	–	–
